Results taken from patent US8658165B2, “Method of treating aberrant mucus production in respiratory disease” (Novartis AG, priority 2007, dated 2014).

Legend:
[1] = system: Human Bronchial Epithelial Cells (HBECs); test: Inhibition of NRG1β1-induced goblet cell formation (MUC5AC and MUC5B protein by histology) in HBECs; type: cell-based; conditions: inhibitor at 10 μM, NRG1β1 50 nM, 7 days at ALI
Procedure: Human Bronchial epithelial cells (HBECs; Cambrex) were cultured in bronchial epithelial cell growth medium (BEGM; Cambrex) supplemented with the provided singlequots essentially as described in [Atherton et al, 2003]. For differentiation, cells were grown on 0.4 μm pore size, 12 mm TRANSWELL® inserts (Costar) at a cell density of 8.25×10^4 cells/insert in differentiation medium. Differentiation medium contained 50% BEGM and 50% Dulbeccos' modified Eagle's medium (DMEM) and was supplemented with 52 μg/ml bovine pituitary extract, 5 μg/ml insulin, 0.5 μg/ml hydrocortisone, 10 μg/ml transferrin, 0.5 μg/ml epinephrine 0.5 ng/ml human EGF, 50 μg/ml gentamicin and 50 nM retinoic acid. Cells were maintained submerged for 7 days then grown at air-liquid interface (ALI) for 7-14 days and medium was replenished every 2-3 days. […]
After 7 days (unless otherwise stated) of differentiation at ALI, the apical surface of the HBECs was washed gently with PBS and fixed with neutral buffered formalin and wax embedded. […] The area of staining was assessed using a ZEISS® Axioplan 2 microscope (×10 magnification) with an Imaging Associated KS400 image analyzer (Imaging Associates). Fourteen fields were scored for each sample. Data are presented as goblet cell density, which was defined as the ratio of stained area (μm^2) to length (μm) of epithelium scored. […]

[2] = system: Human Bronchial Epithelial Cells (HBECs); test: Effect of NRG1 isoforms on MUC5AC and MUC5B protein (goblet cell formation) in HBECs at air-liquid interface, immunohistochemistry; type: cell-based; conditions: HBECs at ALI, 7 days
Procedure: Human Bronchial epithelial cells (HBECs; Cambrex) were cultured in bronchial epithelial cell growth medium (BEGM; Cambrex) supplemented with the provided singlequots essentially as described in [Atherton et al, 2003]. For differentiation, cells were grown on 0.4 μm pore size, 12 mm TRANSWELL® inserts (Costar) at a cell density of 8.25×10^4 cells/insert in differentiation medium. Differentiation medium contained 50% BEGM and 50% Dulbeccos' modified Eagle's medium (DMEM) and was supplemented with 52 μg/ml bovine pituitary extract, 5 μg/ml insulin, 0.5 μg/ml hydrocortisone, 10 μg/ml transferrin, 0.5 μg/ml epinephrine 0.5 ng/ml human EGF, 50 μg/ml gentamicin and 50 nM retinoic acid. Cells were maintained submerged for 7 days then grown at air-liquid interface (ALI) for 7-14 days and medium was replenished every 2-3 days. Cells were treated with NRG1α or NRG1β1 (R&D SYSTEMS®) during the ALI culture period, added to the basolateral chamber of the TRANSWELL® inserts. At all stages cells were maintained at 37° C. in the presence of 5% CO2 in an air incubator.
After 7 days (unless otherwise stated) of differentiation at ALI, the apical surface of the HBECs was washed gently with PBS and fixed with neutral buffered formalin and wax embedded. Inserts were sectioned at 3 μm thickness and stained with either an anti-MUC5AC antibody (45M1; LABVISION®) or anti-MUC5B monoclonal antibodies using a DABMAP protocol on a VENTANA® XT immunostainer and counterstained with 1% alcian blue in 3% acetic acid, pH 2.5. The area of staining was assessed using a ZEISS® Axioplan 2 microscope (×10 magnification) with an Imaging Associated KS400 image analyzer (Imaging Associates). Fourteen fields were scored for each sample. Data are presented as goblet cell density, which was defined as the ratio of stained area (μm^2) to length (μm) of epithelium scored. Custom made anti-MUC5B monoclonal antibodies were obtained from the Hybridoma Core Laboratory, University of Florida and were raised against the peptide SWYNGHRPEPGLG (SEQ ID NO:11).

ErbB2/ErbB3 heterodimer = ErbB2/ErbB3 heterodimer (Homo sapiens, UniProt P21860); conditions: greater affinity than for ErbB3 homodimers; cited from earlier work
ErbB3 = ErbB3 (Homo sapiens, UniProt P21860); conditions: higher affinity than NRG1a; cited from earlier work
ErbB3, sequence (P21860 20-1342): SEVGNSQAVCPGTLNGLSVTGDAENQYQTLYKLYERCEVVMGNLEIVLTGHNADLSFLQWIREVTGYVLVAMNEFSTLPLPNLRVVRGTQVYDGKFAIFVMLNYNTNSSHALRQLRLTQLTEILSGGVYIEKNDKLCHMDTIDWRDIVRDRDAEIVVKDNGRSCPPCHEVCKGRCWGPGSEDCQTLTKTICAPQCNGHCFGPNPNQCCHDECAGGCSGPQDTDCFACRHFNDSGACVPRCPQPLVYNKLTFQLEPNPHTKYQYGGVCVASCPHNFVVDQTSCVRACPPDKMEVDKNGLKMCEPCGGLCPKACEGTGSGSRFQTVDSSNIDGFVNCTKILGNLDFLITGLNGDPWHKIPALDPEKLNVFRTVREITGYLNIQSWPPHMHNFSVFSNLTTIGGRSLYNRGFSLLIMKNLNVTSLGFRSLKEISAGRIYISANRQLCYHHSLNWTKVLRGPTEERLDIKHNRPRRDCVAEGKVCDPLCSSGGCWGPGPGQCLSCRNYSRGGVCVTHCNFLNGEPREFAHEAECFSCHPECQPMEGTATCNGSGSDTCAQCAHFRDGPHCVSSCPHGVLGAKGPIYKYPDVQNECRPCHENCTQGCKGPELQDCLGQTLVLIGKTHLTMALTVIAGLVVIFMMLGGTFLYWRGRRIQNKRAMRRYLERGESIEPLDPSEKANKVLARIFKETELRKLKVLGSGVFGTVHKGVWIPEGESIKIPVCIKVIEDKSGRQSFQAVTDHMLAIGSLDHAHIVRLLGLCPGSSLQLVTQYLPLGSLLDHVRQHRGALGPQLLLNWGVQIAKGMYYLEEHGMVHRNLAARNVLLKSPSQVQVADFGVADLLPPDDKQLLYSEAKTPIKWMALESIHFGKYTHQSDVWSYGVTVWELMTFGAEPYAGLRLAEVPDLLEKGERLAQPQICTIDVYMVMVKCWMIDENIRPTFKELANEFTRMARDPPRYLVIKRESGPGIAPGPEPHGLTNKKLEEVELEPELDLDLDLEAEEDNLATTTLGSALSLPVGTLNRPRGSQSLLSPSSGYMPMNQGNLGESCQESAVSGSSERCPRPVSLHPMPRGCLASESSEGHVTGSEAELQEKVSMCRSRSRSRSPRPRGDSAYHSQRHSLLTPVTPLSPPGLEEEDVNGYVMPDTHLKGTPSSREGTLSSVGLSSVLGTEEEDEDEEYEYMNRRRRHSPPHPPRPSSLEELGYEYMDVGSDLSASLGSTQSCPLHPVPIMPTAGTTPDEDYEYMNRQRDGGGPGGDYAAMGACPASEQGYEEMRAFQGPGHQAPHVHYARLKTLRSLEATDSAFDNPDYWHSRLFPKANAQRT

Which “effect on NRG1β1-induced increase in MUC5AC protein” value [1] does the source give for `CCN1CCN(Cc2ccc(-c3cc4c(N[C@H](C)c5ccccc5)ncnc4[nH]3)cc2)CC1` [pan-ErbB receptor inhibitor] here?
The value was “significantly inhibited”.

And the “effect on NRG1β1-induced increase in MUC5B protein” value [1]?
Its value is “significantly inhibited”.

For “NRG1β1: Neuregulin-1 isoform β1 protein (R&D SYSTEMS) added to HBEC cultures”, which “increase in MUC5AC protein over vehicle levels” value ([2]; 50 nM, histology) is on record?
The value was 3 fold.

And the “increase in MUC5B protein” value ([2]; 50 nM, immunohistochemistry)?
The value was 9.8 fold.

And the “effect on MUC5AC protein” value ([2]; increasing concentrations, histology)?
Its value is “dose-dependent increase”.

What about the “affinity for the ErbB2/ErbB3 heterodimer relative to ErbB3 homodimers” value (ErbB2/ErbB3 heterodimer) of the same compound?
Its value is 100 fold.

And the “affinity for ErbB3 relative to NRG1a” value (ErbB3)?
The value was 100 fold.
